Results taken from PubChem BioAssay (NCI).
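Values below derive from 48-hour exposures of cells grown in 96-well plates, with endpoints linearly interpolated between the two concentrations bracketing the appropriate inhibition level. GI50 = concentration required for 50% inhibition of growth. TGI is the concentration that stops growth completely.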

Legend:
Test in all cases: inhibition of tumour cell growth, NCI panel, 48 h
786-0 renal = tested on: 786-0 renal
A498 renal = tested on: A498 renal
A549 NSCLC = tested on: A549 NSCLC
ACHN renal = tested on: ACHN renal
CAKI-1 renal = tested on: CAKI-1 renal
CCRF-CEM leukemia = tested on: CCRF-CEM leukemia
COLO 205 colon = tested on: COLO 205 colon
DLD-1 colon = tested on: DLD-1 colon
DMS 114 small cell lung = tested on: DMS 114 small cell lung
EKVX NSCLC = tested on: EKVX NSCLC
HCC-2998 colon = tested on: HCC-2998 colon
HCT-15 colon = tested on: HCT-15 colon
HL-60(TB) leukemia = tested on: HL-60(TB) leukemia
HOP-18 NSCLC = tested on: HOP-18 NSCLC
HOP-62 NSCLC = tested on: HOP-62 NSCLC
HOP-92 NSCLC = tested on: HOP-92 NSCLC
HT29 colon = tested on: HT29 colon
IGROV1 ovarian = tested on: IGROV1 ovarian
K-562 leukemia = tested on: K-562 leukemia
KM20L2 colon = tested on: KM20L2 colon
LXFL 529 NSCLC = tested on: LXFL 529 NSCLC
M14 melanoma = tested on: M14 melanoma
M19-MEL melanoma = tested on: M19-MEL melanoma
MALME-3M melanoma = tested on: MALME-3M melanoma
MOLT-4 leukemia = tested on: MOLT-4 leukemia
NCI-H226 lung = tested on: NCI-H226 lung
NCI-H23 lung = tested on: NCI-H23 lung
NCI-H460 lung = tested on: NCI-H460 lung
OVCAR-3 ovarian = tested on: OVCAR-3 ovarian
OVCAR-4 ovarian = tested on: OVCAR-4 ovarian
OVCAR-5 ovarian = tested on: OVCAR-5 ovarian
OVCAR-8 ovarian = tested on: OVCAR-8 ovarian
RPMI-8226 leukemia = tested on: RPMI-8226 leukemia
RXF 393 renal = tested on: RXF 393 renal
RXF-631 renal = tested on: RXF-631 renal
SF-268 CNS = tested on: SF-268 CNS
SF-295 CNS = tested on: SF-295 CNS
SF-539 CNS = tested on: SF-539 CNS
SK-MEL-28 melanoma = tested on: SK-MEL-28 melanoma
SK-MEL-5 melanoma = tested on: SK-MEL-5 melanoma
SK-OV-3 ovarian = tested on: SK-OV-3 ovarian
SN12C renal = tested on: SN12C renal
SNB-19 CNS = tested on: SNB-19 CNS
SNB-78 CNS = tested on: SNB-78 CNS
SW-620 colon = tested on: SW-620 colon
TK-10 renal = tested on: TK-10 renal
U251 CNS = tested on: U251 CNS
UACC-257 melanoma = tested on: UACC-257 melanoma
UACC-62 melanoma = tested on: UACC-62 melanoma
UO-31 renal = tested on: UO-31 renal
XF 498 CNS = tested on: XF 498 CNS
DMS 273 small cell lung = tested on: DMS 273 small cell lung
HCT-116 colon = tested on: HCT-116 colon
KM12 colon = tested on: KM12 colon
LOX IMVI melanoma = tested on: LOX IMVI melanoma
NCI-H522 lung = tested on: NCI-H522 lung
SK-MEL-2 melanoma = tested on: SK-MEL-2 melanoma
SNB-75 CNS = tested on: SNB-75 CNS
SR leukemia = tested on: SR leukemia

`COC(=O)C12C3C4C1C1C2C3C41C(=O)O` (stereo not drawn) showed a TGI (786-0 renal) greater than 100000 nM, a TGI (A498 renal) greater than 100000 nM and a TGI (A549 NSCLC) greater than 100000 nM. For the same compound, the TGI (ACHN renal) was greater than 100000 nM, the TGI (CAKI-1 renal) was greater than 100000 nM and the TGI (CCRF-CEM leukemia) was greater than 100000 nM. For the same compound, the TGI (COLO 205 colon) was greater than 100000 nM, the TGI (DLD-1 colon) was greater than 100000 nM and the TGI (DMS 114 small cell lung) was greater than 100000 nM. For the same compound, the TGI (EKVX NSCLC) was greater than 100000 nM, the TGI (HCC-2998 colon) was greater than 100000 nM and the TGI (HCT-15 colon) was greater than 100000 nM. The TGI (HL-60(TB) leukemia) was greater than 100000 nM, the TGI (HOP-18 NSCLC) was greater than 100000 nM and the TGI (HOP-62 NSCLC) was greater than 100000 nM. It also gave a TGI (HOP-92 NSCLC) greater than 100000 nM, a TGI (HT29 colon) greater than 100000 nM and a TGI (IGROV1 ovarian) greater than 100000 nM. For the same compound, the TGI (K-562 leukemia) was greater than 100000 nM, the TGI (KM20L2 colon) was greater than 100000 nM and the TGI (LXFL 529 NSCLC) was greater than 100000 nM. It also gave a TGI (M14 melanoma) greater than 100000 nM, a TGI (M19-MEL melanoma) greater than 100000 nM and a TGI (MALME-3M melanoma) greater than 100000 nM. It also gave a TGI (MOLT-4 leukemia) greater than 100000 nM, a TGI (NCI-H226 lung) greater than 100000 nM and a TGI (NCI-H23 lung) greater than 100000 nM. The TGI (NCI-H460 lung) was greater than 100000 nM, the TGI (OVCAR-3 ovarian) was greater than 100000 nM and the TGI (OVCAR-4 ovarian) was greater than 100000 nM. For the same compound, the TGI (OVCAR-5 ovarian) was greater than 100000 nM, the TGI (OVCAR-8 ovarian) was greater than 100000 nM and the TGI (RPMI-8226 leukemia) was greater than 100000 nM. It also gave a TGI (RXF 393 renal) greater than 100000 nM, a TGI (RXF-631 renal) greater than 100000 nM and a TGI (SF-268 CNS) greater than 100000 nM. For the same compound, the TGI (SF-295 CNS) was greater than 100000 nM, the TGI (SF-539 CNS) was greater than 100000 nM and the TGI (SK-MEL-28 melanoma) was greater than 100000 nM. For the same compound, the TGI (SK-MEL-5 melanoma) was greater than 100000 nM, the TGI (SK-OV-3 ovarian) was greater than 100000 nM and the TGI (SN12C renal) was greater than 100000 nM. For the same compound, the TGI (SNB-19 CNS) was greater than 100000 nM, the TGI (SNB-78 CNS) was greater than 100000 nM and the TGI (SW-620 colon) was greater than 100000 nM. It also gave a TGI (TK-10 renal) greater than 100000 nM, a TGI (U251 CNS) greater than 100000 nM and a TGI (UACC-257 melanoma) greater than 100000 nM. The TGI (UACC-62 melanoma) was greater than 100000 nM, the TGI (UO-31 renal) was greater than 100000 nM and the TGI (XF 498 CNS) was greater than 100000 nM.

`CC[C@@]1(O)C(=O)OCc2c1cc1n(c2=O)Cc2cc3c([N+](=O)[O-])c(OC)ccc3nc2-1` showed a GI50 (786-0 renal) of less than 11.5 nM, a TGI (786-0 renal) of 67.2 nM and a GI50 (A498 renal) of 184 nM. The TGI (A498 renal) was 855 nM, the GI50 (A549 NSCLC) was 34.3 nM and the TGI (A549 NSCLC) was 2610 nM. The GI50 (ACHN renal) was less than 10 nM, the TGI (ACHN renal) was 64.8 nM and the GI50 (CAKI-1 renal) was 17.2 nM. The TGI (CAKI-1 renal) was 582 nM, the GI50 (CCRF-CEM leukemia) was less than 10 nM and the TGI (CCRF-CEM leukemia) was 34.9 nM. The GI50 (COLO 205 colon) was 529 nM, the TGI (COLO 205 colon) was 2640 nM and the GI50 (DLD-1 colon) was 1540 nM. For the same compound, the TGI (DLD-1 colon) was greater than 100000 nM, the GI50 (DMS 273 small cell lung) was less than 10 nM and the TGI (DMS 273 small cell lung) was 377 nM. It also gave a GI50 (EKVX NSCLC) of 3030 nM, a TGI (EKVX NSCLC) greater than 77500 nM and a GI50 (HCC-2998 colon) of 359 nM. For the same compound, the TGI (HCC-2998 colon) was 2140 nM, the GI50 (HCT-116 colon) was 121 nM and the TGI (HCT-116 colon) was 1500 nM. The GI50 (HCT-15 colon) was 386 nM, the TGI (HCT-15 colon) was 3710 nM and the GI50 (HL-60(TB) leukemia) was 23.6 nM. For the same compound, the TGI (HL-60(TB) leukemia) was 196 nM, the GI50 (HOP-18 NSCLC) was 81.6 nM and the TGI (HOP-18 NSCLC) was 1980 nM. The GI50 (HOP-62 NSCLC) was less than 10 nM, the GI50 (HOP-92 NSCLC) was 375 nM and the TGI (HOP-92 NSCLC) was 2940 nM. It also gave a GI50 (HT29 colon) of 224 nM, a TGI (HT29 colon) greater than 100000 nM and a GI50 (IGROV1 ovarian) of 272 nM. It also gave a TGI (IGROV1 ovarian) of 2320 nM, a GI50 (K-562 leukemia) of 168 nM and a TGI (K-562 leukemia) greater than 20400 nM. It also gave a GI50 (KM12 colon) of 514 nM, a TGI (KM12 colon) of 6120 nM and a GI50 (KM20L2 colon) of 262 nM. For the same compound, the TGI (KM20L2 colon) was 5950 nM, the GI50 (LOX IMVI melanoma) was 19.4 nM and the TGI (LOX IMVI melanoma) was 183 nM. For the same compound, the GI50 (LXFL 529 NSCLC) was 1430 nM, the TGI (LXFL 529 NSCLC) was 8420 nM and the GI50 (M14 melanoma) was 44.5 nM. The TGI (M14 melanoma) was 635 nM, the TGI (M19-MEL melanoma) was 1600 nM and the GI50 (MALME-3M melanoma) was 374 nM. For the same compound, the TGI (MALME-3M melanoma) was 3090 nM, the GI50 (MOLT-4 leukemia) was less than 10 nM and the TGI (MOLT-4 leukemia) was 83.5 nM. The GI50 (NCI-H226 lung) was 274 nM, the GI50 (NCI-H23 lung) was 15.5 nM and the TGI (NCI-H23 lung) was 175 nM. It also gave a GI50 (NCI-H460 lung) of less than 10 nM, a TGI (NCI-H460 lung) of 118 nM and a GI50 (NCI-H522 lung) of 71.4 nM. The TGI (NCI-H522 lung) was 2160 nM, the GI50 (OVCAR-3 ovarian) was 424 nM and the TGI (OVCAR-3 ovarian) was 1340 nM. For the same compound, the GI50 (OVCAR-4 ovarian) was 574 nM, the TGI (OVCAR-4 ovarian) was 3020 nM and the GI50 (OVCAR-5 ovarian) was 64.9 nM. It also gave a TGI (OVCAR-5 ovarian) of 629 nM, a GI50 (OVCAR-8 ovarian) of 103 nM and a TGI (OVCAR-8 ovarian) of 19000 nM. For the same compound, the GI50 (RPMI-8226 leukemia) was 1380 nM, the TGI (RPMI-8226 leukemia) was 14500 nM and the GI50 (RXF 393 renal) was 120 nM. The TGI (RXF 393 renal) was 831 nM, the GI50 (RXF-631 renal) was 311 nM and the TGI (RXF-631 renal) was 4580 nM. For the same compound, the GI50 (SF-268 CNS) was 17.7 nM, the TGI (SF-268 CNS) was greater than 31800 nM and the GI50 (SF-295 CNS) was 10.1 nM. For the same compound, the TGI (SF-295 CNS) was 263 nM, the GI50 (SF-539 CNS) was less than 12.2 nM and the TGI (SF-539 CNS) was 121 nM. The GI50 (SK-MEL-2 melanoma) was 968 nM, the TGI (SK-MEL-2 melanoma) was 2610 nM and the GI50 (SK-MEL-28 melanoma) was 544 nM. It also gave a TGI (SK-MEL-28 melanoma) of 8160 nM, a GI50 (SK-MEL-5 melanoma) of 119 nM and a TGI (SK-MEL-5 melanoma) of 285 nM. The GI50 (SK-OV-3 ovarian) was 48.1 nM, the TGI (SK-OV-3 ovarian) was 2490 nM and the GI50 (SN12C renal) was less than 10 nM. For the same compound, the TGI (SN12C renal) was 433 nM, the GI50 (SNB-19 CNS) was 59.4 nM and the TGI (SNB-19 CNS) was 22200 nM. For the same compound, the GI50 (SNB-75 CNS) was 35 nM, the TGI (SNB-75 CNS) was 405 nM and the GI50 (SNB-78 CNS) was 2200 nM. It also gave a TGI (SNB-78 CNS) greater than 65300 nM, a GI50 (SR leukemia) of less than 10 nM and a GI50 (SW-620 colon) of 171 nM. It also gave a TGI (SW-620 colon) of 2550 nM, a GI50 (TK-10 renal) of 3580 nM and a TGI (TK-10 renal) of 55600 nM. For the same compound, the GI50 (U251 CNS) was less than 10 nM, the TGI (U251 CNS) was 230 nM and the GI50 (UACC-257 melanoma) was 293 nM. The TGI (UACC-257 melanoma) was 2230 nM, the GI50 (UACC-62 melanoma) was less than 10 nM and the TGI (UACC-62 melanoma) was 134 nM. It also gave a GI50 (UO-31 renal) of 84.5 nM, a TGI (UO-31 renal) of 595 nM and a GI50 (XF 498 CNS) of 508 nM. The TGI (XF 498 CNS) was 5070 nM.
